# Experimental data: patent US7659277B2, “Ubiquitin ligase inhibitors and methods related thereto” (Proteologies, Ltd., priority 2003, dated 2010)
# Key:
# Assay type in all cases: biochemical
# c-cbl = c-cbl (Homo sapiens, UniProt P22681); assay: Selectivity (% A in 1 μM), ubiquitin ligase activity of c-cbl; conditions: % activity at 1 μM compound; control is related to 100% activity; HTS protocol
# E2 protein = conditions: % activity at 1 μM compound; control is related to 100% activity; HTS protocol
# POSH = target: T1, POSH (Homo sapiens, UniProt Q7Z6J0); assay: IC50 assay procedure: GST-POSH auto-ubiquitination, homogeneous time-resolved fluorescence (Ub-cryptate / anti-GST XL665); conditions: ubiquitin ligase activity of POSH; GST-POSH 33 nM, 30 min preincubation
# T1 construct: GST-POSH lot NB81/p.118 3.6 mg/ml; fused on or other part: GST tag, used for detection with anti-GST XL665
# T1 sequence (Q7Z6J0 1-269 limits assumed): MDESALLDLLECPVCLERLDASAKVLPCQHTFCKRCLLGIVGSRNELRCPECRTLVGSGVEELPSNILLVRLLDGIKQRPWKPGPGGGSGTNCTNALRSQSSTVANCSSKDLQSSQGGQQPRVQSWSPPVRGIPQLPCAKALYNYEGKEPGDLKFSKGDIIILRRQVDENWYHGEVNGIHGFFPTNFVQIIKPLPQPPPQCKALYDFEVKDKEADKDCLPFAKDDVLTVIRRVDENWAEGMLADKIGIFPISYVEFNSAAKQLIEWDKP
# Text: In certain preferred embodiments, agents that inhibit (or promote) the ubiquitin ligase activity of a ubiquitin ligase, such as POSH, may be identified using a homogenous time resolved fluorescence assay. Such an assay may employ a GST fused to the RING subunit of a ubiquitin ligase (e.g. POSH). Two flurophore-conjugated detection reagents are also used: anti-GSTXL665 and europium cryptate labeled ubiqutin. The ubiqutination of the ubiquitin ligase by ubiqutin cryptate and binding of the anti-GST tagged XL665 brings the fluorophores into close proximity allowing FRET reaction to occur. Accordingly, FRET serves as a measurement of ubiquitination of the ubiquitin ligase. An enzymatic system may be set up to provide activated ubiquitin, e.g., by providing ubiquitin, an E1 and an E2. Compounds that will not allow the FRET reaction are considered to be inhibitors.
# Step 3: establish IC 50 value measurements.
# Experimental Protocols: 1. HTS Screening Assay Procedure • Microplates 10109D to 10114D compounds at 1 mM. • (Controls in column 1). • All compounds were perchase from ChemBridge corporation: ChemBridge corporation 16981 Via Tazon, Suite G San Diego, Calif. 92127 a. Microplates Labeling • Put labels to 6 PS U-bottom clear microplate. • Put labels to 18 black microplates (triplicats). b. Microplates Preparation • Put 100 μl GST-POSH at 33 nM in wells of the clear PS U-bottom microplates (exept wells A1-D1). • Negative control: place 100 μl dH2O in wells A1-D1. • (Positive control: place 100 μl GST-POSH at 33 nM in wells E1-H1). • Put 8 μl enzymes solution ×4 to black microplates (column 1 to 11). c. Incubation of E3 with Compounds • Transfer 5 μl of compounds (at 1 mM) to the microplates containing 100 μl GST-POSH. • Add 5 μl of DMSO to controls column 1. • Incubation 30 minutes at RT. d. Enzymatic (Ubiquitination) and Final Steps • Distribution of (triplicate) 3×23 μl incubated compounds into 3 black microplates containing enzymatic solution (on splitting apparatus). • Incubation 30 minutes at 37° C. • Addition of 8 μl EDTA 0.5 M. • Incubation 15 (at least) minutes at RT. • Addition of 30 μl GST XL 665 in reconstitution buffer. • Incubation 45 (at least) minutes at RT. • Reading fluorescence. • Record results in computer. • Put sealing foil back on original and diluted microplates and keep at −70° C. • Always the plates must be closed with lids during each step. 2. […] Microplates Labeling • Put labels to 4 clear PP clear microplate (18.2 μM, 9.1 uM, 1.82 uM, 910 nM,). • Put labels to 5 clear PS U-bottom clear microplate 4.44 μM, 909, 444, 91 and 44 nM) • Put labels to 15 black microplates (triplicates). f. Original Microplate Dilutions • Put DMSO 40 μl to (18.2 μM, 1.82 uM plates) and 20 ul to (9.1 uM, 910 nM plates. • Mix by pipetation the original microplate (3× up and down 45 μl). • Transfer 10 μl of compounds from the original microplate (at 91 μM) to the next microplate (=18.2 μM) on splitting apparatus. • Mix by pipetation the 18.2 uM microplate (3× up and down 45 μl). • Transfer 20 μl of compounds from the 18.2 uM microplate to the next microplate (=9.1 μM) on splitting apparatus. • Mix by pipetation the 9.1 uM microplate (3× up and down 45 μl). • Transfer 10 μl of compounds from the 9.1 uM microplate to the next microplate (=1.82 μM) on splitting apparatus. • Mix by pipetation the 1.82 uM microplate (3× up and down 45 μl). • Transfer 20 μl of compounds from the 1.82 uM microplate to the next microplate (=910 nM) on splitting apparatus • Mix by pipetation. g. Microplates Preparation • Put 123 μl GST-POSH at 33 nM in wells of the 5 clear PS U-bottom clear microplates. • Positive control: place 123 μl GST-POSH at 33 nM in well A12-h12 13 μl DMSO. • Negative control: place 123 μl dH2O in well B1 and 13 μl DMSO. • Put 8 μl enzymes solution ×4 to 15 black microplates. • Controls: put 8 μl enzymes solution ×4 to wells A1 to F1. h. […]
Structure (SMILES),remaining activity at 1 µM (c-cbl) [%],Selectivity (% A* in 1 μM) E2 (E2 protein) [%],IC50 (POSH) [nM]
Oc1ccc2ccccc2c1/C=N/c1ncc(Br)cc1Br [Compound 66],107,117,900
COc1cc(C=C2C(=O)N(C)C(=S)N(C)C2=O)ccc1O [Compound 9],–,–,10000
COc1ccc(CNc2cccc(N(C)C)c2)cc1 [Compound 106],112,88,900
Oc1c(Br)cc(Br)cc1/C=N/c1nc2ccccc2s1 [Compound 62],134,94,700
COc1ccc(/C=C/C(=O)C2C(=O)CCC2=O)cc1OC [Compound 113],93,66,400
O=[N+]([O-])c1ccc(-c2ccc(/N=C/c3c(O)ccc4ccccc34)cc2)cc1 [Compound 60],110,53,1000
Cc1cc(I)ccc1NCn1nnc2ccccc21 [Compound 105],117,93,800
O=c1oc2cc(O)ccc2cc1-c1csc(-c2ccc(Cl)cc2)n1 [Compound 40],95,117,1000
COc1ccccc1N1C(=O)NC(=O)/C(=C\C=C\c2ccccc2)C1=O [Compound 10],–,–,1000
Oc1c(Br)cc(Br)cc1/C=N/c1cccc2nsnc12 [Compound 112],117,84,700
O=c1/c(=C/c2cccc([N+](=O)[O-])c2O)sc2nc3ccccc3n12 [Compound 51],104,113,700
Oc1c(Cl)cc(Cl)cc1/C=N/c1ccc(-c2nc3ccccc3[nH]2)cc1 [Compound 63],95,109,600
Cc1ccc(/C=N/c2ccc(Cl)cc2)o1 [Compound 74],110,96,1000
O=[N+]([O-])c1ccc2c(c1)Cc1cc(/N=C/c3ccc(Br)cc3)ccc1-2 [Compound 67],92,98,1000
O=C1C=CC(=O)N1c1cc(Cl)cc(Cl)c1 [Compound 23],102,112,200
CC(=O)Nc1ccc(-c2cc3ccccn3c2)cc1 [Compound 78],151,43,900
Cc1cc(/N=C/c2c(O)ccc3ccccc23)no1 [Compound 111],98,49,1000
C=CCN1C(=O)NC(=O)/C(=C/c2ccc(F)cc2)C1=O [Compound 12],–,–,1000

Structure (SMILES),remaining activity at 1 µM (c-cbl) [%],Selectivity (% A* in 1 μM) E2 (E2 protein) [%],IC50 (POSH) [nM]
O=C1NC(=O)/C(=C\c2ccc(-c3ccc(F)cc3)o2)S1 [Compound 108],–,–,900
COc1cc(/C=C2\SC(=O)NC2=O)ccc1OCc1ccc(Cl)cc1Cl [Compound 34],135,93,1000
Oc1ccc(/N=C/c2cccs2)cc1-c1nc2ccccc2s1 [Compound 71],84,86,800
O=C1\C(=C/C=C/C=C/Nc2ccccc2)SC(=S)N1c1ccccc1 [Compound 24],90,87,1000
COc1ccc(/C=C2\C(=O)NC(=S)N(c3ccccc3)C2=O)cc1 [Compound 11],–,–,10000
COc1ccc(CC(C)NCc2ccccc2Cl)cc1 (stereo not drawn) [Compound 107],–,–,1000
Oc1c(Br)cc(Br)cc1/C=N/c1ccc(Br)cn1 [Compound 61],133,52,700
O=C1NC(=O)N(c2ccc(Br)cc2)C(=O)/C1=C/c1ccc(O)cc1 [Compound 5],–,–,300
O=C(C(Cl)Cl)N1CCN(c2ccc([N+](=O)[O-])cc2)CC1 [Compound 79],89,55,900
Oc1c(Br)cc(Cl)cc1/C=N/c1ccccc1Br [Compound 58],115,108,800
O=C1N=C(c2ccccc2)S/C1=C/c1ccc(-c2cccc([N+](=O)[O-])c2)o1 [Compound 36],86,82,1000
O=C1CC(NNc2ccccc2)C(=O)N1c1cccc(Cl)c1 (stereo not drawn) [Compound 22],64,91,900
COc1cc(N/C=C2/C(=O)NC(=S)N(c3ccc(F)cc3)C2=O)cc(OC)c1 [Compound 17],–,–,700
O=C1NC(=S)N(c2ccccc2)C(=O)/C1=C\c1c(Cl)cccc1Cl [Compound 6],–,–,800
COc1ccc(N2C(=O)NC(=O)/C(=C\c3ccc(Cl)cc3)C2=O)cc1 [Compound 7],–,–,1000
COc1cc(N/C=C2/C(=O)NC(=S)N(c3cccc(C)c3)C2=O)cc(OC)c1 [Compound 16],–,–,1000
O=C1C(=Cc2ccco2)C(=O)N(c2ccccc2)C(=S)N1c1ccccc1 [Compound 13],–,–,1000
